Laboratory results as given in ChEMBL document CHEMBL1949655, “Neomycin-phenolic conjugates: polycationic amphiphiles with broad-spectrum antibacterial activity, low hemolytic activity and weak serum protein binding” (Bioorg Med Chem Lett, 2012).
Converted amounts (≈) assume the structure as drawn.

How the values were obtained:
[1] = tested on: Staphylococcus aureus; test: microbe, parasite or virus in culture; format: functional; conditions: ATCC 33592, 24 h
Description: Antibacterial activity against methicillin-resistant Staphylococcus aureus ATCC 33592 after 24 hrs by macrobroth dilution method in the presence of bovine serum albumin

[2] = tested on: Staphylococcus epidermidis; test: microbe, parasite or virus in culture; format: functional; conditions: isolate CAN-ICU61589, 24 h
Description: Antibacterial activity against methicillin-resistant Staphylococcus epidermidis isolate CAN-ICU 61589 after 24 hrs by macrobroth dilution method

[3] = tested on: Enterococcus faecium; test: microbe, parasite or virus in culture; format: functional; conditions: ATCC 27270, 24 h
Description: Antibacterial activity against Enterococcus faecium ATCC 27270 after 24 hrs by macrobroth dilution method

[4] = tested on: Streptococcus pneumoniae; test: microbe, parasite or virus in culture; format: functional; conditions: ATCC 49619, 24 h
Description: Antibacterial activity against Streptococcus pneumoniae ATCC 49619 after 24 hrs by macrobroth dilution method in the presence of bovine serum albumin

[5] = tested on: Pseudomonas aeruginosa; test: microbe, parasite or virus in culture; format: functional; conditions: isolate CAN-ICU 62308, 24 h
Description: Antibacterial activity against Pseudomonas aeruginosa isolate CAN-ICU 62308 after 24 hrs by macrobroth dilution method in the presence of bovine serum albumin

[6] = tested on: Escherichia coli; test: microbe, parasite or virus in culture; format: functional; conditions: isolate CAN-ICU 63074, 24 h
Description: Antibacterial activity against Escherichia coli isolate CAN-ICU 63074 after 24 hrs by macrobroth dilution method

[7] = tested on: Acinetobacter baumannii; test: microbe, parasite or virus in culture; format: functional; conditions: isolate CAN-ICU 63169, 24 h
Description: Antibacterial activity against Acinetobacter baumannii 63169 isolate CAN-ICU after 24 hrs by macrobroth dilution method

[8] = tested on: Staphylococcus aureus; test: microbe, parasite or virus in culture; format: functional; conditions: ATCC 33592, 24 h; remark: listed apart in the source
Description: Antibacterial activity against methicillin-resistant Staphylococcus aureus ATCC 33592 after 24 hrs by macrobroth dilution method

[9] = tested on: Enterococcus faecalis; test: microbe, parasite or virus in culture; format: functional; conditions: ATCC 29212, 24 h
Description: Antibacterial activity against Enterococcus faecalis ATCC 29212 after 24 hrs by macrobroth dilution method

[10] = tested on: Staphylococcus aureus; test: microbe, parasite or virus in culture; format: functional; conditions: ATCC 29213, 24 h
Description: Antibacterial activity against Staphylococcus aureus ATCC 29213 after 24 hrs by macrobroth dilution method

[11] = tested on: Escherichia coli; test: microbe, parasite or virus in culture; format: functional; conditions: isolate CAN-ICU 61714, 24 h
Description: Antibacterial activity against Escherichia coli isolate CAN-ICU 61714 after 24 hrs by macrobroth dilution method

[12] = tested on: Escherichia coli; test: microbe, parasite or virus in culture; format: functional; conditions: ATCC 25922, 24 h
Description: Antibacterial activity against Escherichia coli ATCC 25922 after 24 hrs by macrobroth dilution method

[13] = tested on: Pseudomonas aeruginosa; test: microbe, parasite or virus in culture; format: functional; conditions: ATCC 27853, 24 h
Description: Antibacterial activity against Pseudomonas aeruginosa ATCC 27853 after 24 hrs by macrobroth dilution method in the presence of bovine serum albumin

[14] = tested on: Staphylococcus aureus; test: microbe, parasite or virus in culture; format: functional; conditions: ATCC 29213, 24 h; remark: listed apart in the source
Description: Antibacterial activity against Staphylococcus aureus ATCC 29213 after 24 hrs by macrobroth dilution method in the presence of bovine serum albumin

[15] = tested on: Klebsiella pneumoniae; test: microbe, parasite or virus in culture; format: functional; conditions: ATCC 13883, 24 h
Description: Antibacterial activity against Klebsiella pneumoniae ATCC 13883 after 24 hrs by macrobroth dilution method

[16] = tested on: Staphylococcus epidermidis; test: microbe, parasite or virus in culture; format: functional; conditions: Staphylococcus epidermidis, 81388, 24 h
Description: Antibacterial activity against methicillin-susceptible Staphylococcus epidermidis 81388 after 24 hrs by macrobroth dilution method in the presence of bovine serum albumin

[17] = tested on: Staphylococcus epidermidis; test: microbe, parasite or virus in culture; format: functional, isolate CAN-ICU 61589; conditions: isolate CAN-ICU61589, 24 h
Description: Antibacterial activity against methicillin-resistant Staphylococcus epidermidis isolate CAN-ICU 61589 after 24 hrs by macrobroth dilution method in the presence of bovine serum albumin

[18] = tested on: Escherichia coli; test: microbe, parasite or virus in culture; format: functional; conditions: ATCC 25922, 24 h; remark: listed apart in the source
Description: Antibacterial activity against Escherichia coli ATCC 25922 after 24 hrs by macrobroth dilution method in the presence of bovine serum albumin

[19] = tested on: Escherichia coli; test: microbe, parasite or virus in culture; format: functional; conditions: isolate CAN-ICU 61714, 24 h; remark: listed apart in the source
Description: Antibacterial activity against Escherichia coli isolate CAN-ICU 61714 after 24 hrs by macrobroth dilution method in the presence of bovine serum albumin

[20] = tested on: Enterococcus faecium; test: microbe, parasite or virus in culture; format: functional; conditions: ATCC 27270, 24 h; remark: listed apart in the source
Description: Antibacterial activity against Enterococcus faecium ATCC 27270 after 24 hrs by macrobroth dilution method in the presence of bovine serum albumin

[21] = tested on: Acinetobacter baumannii; test: microbe, parasite or virus in culture; format: functional; conditions: isolate CAN-ICU 63169, 24 h; remark: listed apart in the source
Description: Antibacterial activity against Acinetobacter baumannii isolate CAN-ICU 63169 after 24 hrs by macrobroth dilution method in the presence of bovine serum albumin

[22] = tested on: Pseudomonas aeruginosa; test: microbe, parasite or virus in culture; format: functional; conditions: isolate CAN-ICU 62308, 24 h; remark: listed apart in the source
Description: Antibacterial activity against Pseudomonas aeruginosa isolate CAN-ICU 62308 after 24 hrs by macrobroth dilution method

[23] = tested on: Enterococcus faecalis; test: microbe, parasite or virus in culture; format: functional; conditions: ATCC 29212, 24 h; remark: listed apart in the source
Description: Antibacterial activity against Enterococcus faecalis ATCC 29212 after 24 hrs by macrobroth dilution method in the presence of bovine serum albumin

[24] = tested on: Staphylococcus epidermidis; test: microbe, parasite or virus in culture; format: functional; conditions: Staphylococcus epidermidis, 81388, 24 h; remark: listed apart in the source
Description: Antibacterial activity against methicillin-susceptible Staphylococcus epidermidis 81388 after 24 hrs by macrobroth dilution method

[25] = tested on: Stenotrophomonas maltophilia; test: microbe, parasite or virus in culture; format: functional; conditions: isolate CAN-ICU 62584, 24 h
Description: Antibacterial activity against Stenotrophomonas maltophilia isolate CAN-ICU 62584 after 24 hrs by macrobroth dilution method in the presence of bovine serum albumin

[26] = tested on: Streptococcus pneumoniae; test: microbe, parasite or virus in culture; format: functional; conditions: ATCC 49619, 24 h; remark: listed apart in the source
Description: Antibacterial activity against Streptococcus pneumoniae ATCC 49619 after 24 hrs by macrobroth dilution method

[27] = tested on: Pseudomonas aeruginosa; test: microbe, parasite or virus in culture; format: functional; conditions: ATCC 27853, 24 h; remark: listed apart in the source
Description: Antibacterial activity against Pseudomonas aeruginosa ATCC 27853 after 24 hrs by macrobroth dilution method

[28] = tested on: Stenotrophomonas maltophilia; test: microbe, parasite or virus in culture; format: functional; conditions: isolate CAN-ICU 62584, 24 h; remark: listed apart in the source
Description: Antibacterial activity against Stenotrophomonas maltophilia isolate CAN-ICU 62584 after 24 hrs by macrobroth dilution method

[29] = tested on: Escherichia coli; test: microbe, parasite or virus in culture; format: functional; conditions: isolate CAN-ICU 63074, 24 h; remark: listed apart in the source
Description: Antibacterial activity against Escherichia coli isolate CAN-ICU 63074 after 24 hrs by macrobroth dilution method in the presence of bovine serum albumin

[30] = Toxicity in human erythrocytes assessed as hemolysis at 100 ug/ml by spectrophotometry; conditions: at 100 µg/mL
[31] = tested on: Klebsiella pneumoniae; test: microbe, parasite or virus in culture; format: functional; conditions: ATCC 13883, 24 h; remark: listed apart in the source
Description: Antibacterial activity against Klebsiella pneumoniae ATCC 13883 after 24 hrs by macrobroth dilution method in the presence of bovine serum albumin

Cc1cc(OCc2cn(C[C@H]3O[C@@H](O[C@@H]4[C@@H](O)[C@H](N)C[C@H](N)[C@H]4O[C@H]4O[C@H](CN)[C@@H](O)[C@H](O)[C@H]4N)[C@H](O)[C@@H]3O[C@H]3O[C@@H](CN)[C@@H](O)[C@H](O)[C@H]3N)nn2)cc(C)c1Cl
MIC90 [1]: 512 µg/mL (≈ 614 µM) | MIC90 [2]: 8 µg/mL (≈ 9.59 µM) | MIC90 [3]: 128 µg/mL (≈ 153 µM) | MIC90 [4]: 128 µg/mL (≈ 153 µM) | MIC90 [5]: 256 µg/mL (≈ 307 µM) | MIC90 [6]: 128 µg/mL (≈ 153 µM) | MIC90 [7]: > 512 µg/mL | MIC90 [8]: 256 µg/mL (≈ 307 µM) | MIC90 [9]: 64 µg/mL (≈ 76.7 µM) | MIC90 [10]: 16 µg/mL (≈ 19.2 µM) | MIC90 [11]: 16 µg/mL (≈ 19.2 µM) | MIC90 [12]: 16 µg/mL (≈ 19.2 µM) | MIC90 [13]: 512 µg/mL (≈ 614 µM) | MIC90 [14]: 32 µg/mL (≈ 38.4 µM) | MIC90 [15]: 8 µg/mL (≈ 9.59 µM) | MIC90 [16]: 8 µg/mL (≈ 9.59 µM) | MIC90 [17]: 8 µg/mL (≈ 9.59 µM) | MIC90 [18]: 32 µg/mL (≈ 38.4 µM) | MIC90 [19]: 16 µg/mL (≈ 19.2 µM) | MIC90 [20]: 64 µg/mL (≈ 76.7 µM) | MIC90 [21]: > 512 µg/mL | MIC90 [22]: 256 µg/mL (≈ 307 µM) | MIC90 [23]: 128 µg/mL (≈ 153 µM) | MIC90 [24]: 8 µg/mL (≈ 9.59 µM) | MIC90 [25]: > 512 µg/mL | MIC90 [26]: 64 µg/mL (≈ 76.7 µM) | MIC90 [27]: 512 µg/mL (≈ 614 µM) | MIC90 [28]: > 512 µg/mL | MIC90 [29]: 128 µg/mL (≈ 153 µM) | hemolysis at 100 ug/ml [30]: 0.75% | MIC90 [31]: 4 µg/mL (≈ 4.79 µM)

Cc1cc(OCCCCc2cn(C[C@H]3O[C@@H](O[C@@H]4[C@@H](O)[C@H](N)C[C@H](N)[C@H]4O[C@H]4O[C@H](CN)[C@@H](O)[C@H](O)[C@H]4N)[C@H](O)[C@@H]3O[C@H]3O[C@@H](CN)[C@@H](O)[C@H](O)[C@H]3N)nn2)cc(C)c1Cl
MIC90 [1]: 256 µg/mL (≈ 292 µM) | MIC90 [2]: 8 µg/mL (≈ 9.13 µM) | MIC90 [3]: 16 µg/mL (≈ 18.3 µM) | MIC90 [4]: 256 µg/mL (≈ 292 µM) | MIC90 [5]: 256 µg/mL (≈ 292 µM) | MIC90 [6]: 128 µg/mL (≈ 146 µM) | MIC90 [7]: 512 µg/mL (≈ 584 µM) | MIC90 [8]: 128 µg/mL (≈ 146 µM) | MIC90 [9]: 128 µg/mL (≈ 146 µM) | MIC90 [10]: 16 µg/mL (≈ 18.3 µM) | MIC90 [11]: 16 µg/mL (≈ 18.3 µM) | MIC90 [12]: 32 µg/mL (≈ 36.5 µM) | MIC90 [13]: > 512 µg/mL | MIC90 [14]: 32 µg/mL (≈ 36.5 µM) | MIC90 [15]: 4 µg/mL (≈ 4.56 µM) | MIC90 [16]: 8 µg/mL (≈ 9.13 µM) | MIC90 [17]: 8 µg/mL (≈ 9.13 µM) | MIC90 [18]: 32 µg/mL (≈ 36.5 µM) | MIC90 [19]: 16 µg/mL (≈ 18.3 µM) | MIC90 [20]: 32 µg/mL (≈ 36.5 µM) | MIC90 [21]: 512 µg/mL (≈ 584 µM) | MIC90 [22]: 256 µg/mL (≈ 292 µM) | MIC90 [23]: 128 µg/mL (≈ 146 µM) | MIC90 [24]: 8 µg/mL (≈ 9.13 µM) | MIC90 [25]: > 512 µg/mL | MIC90 [26]: 64 µg/mL (≈ 73 µM) | MIC90 [27]: 512 µg/mL (≈ 584 µM) | MIC90 [28]: > 512 µg/mL | MIC90 [29]: 128 µg/mL (≈ 146 µM) | hemolysis at 100 ug/ml [30]: 0.75% | MIC90 [31]: 4 µg/mL (≈ 4.56 µM)
